Data taken from paper PMC11645656, “MRGPRX4 mediates phospho-drug associated pruritus in a humanized mouse model” (Science translational medicine, 2024).
pEC50: −log10 of the molar value. Several values for one entry are separate records, joined by “and”; a condition that tells them apart may be missing. Identical values can stand only once. Like-named read-outs stand apart in the source and are kept apart here.

How the values were obtained:
MRGPRX4 (S83) = target: T1, MRGPRX4 (S83) (Homo sapiens, UniProt Q96LA9, L83S); experiment: EC50 determination, intracellular calcium mobilization in MRGPRX4 stably expressed HEK293 cells (FLIPR Calcium 5, Flexstation-3); assay type: cell-based; set-up: Fig. 1D dose-response, calcium mobilization response (individual replicate) / calcium mobilization response (Fig. 1D dose-response raw data): unit not given here; details: for calcium mobilization response (Fig. 1D dose-response raw data) / Fig. 1D dose-response, calcium response at Concentration (M): individual replicate values; for Hill coefficient: dose-response curve fitting, table S1
T1 construct: expressed in transfected cells
T1 sequence (Q96LA9 whole entry L83S): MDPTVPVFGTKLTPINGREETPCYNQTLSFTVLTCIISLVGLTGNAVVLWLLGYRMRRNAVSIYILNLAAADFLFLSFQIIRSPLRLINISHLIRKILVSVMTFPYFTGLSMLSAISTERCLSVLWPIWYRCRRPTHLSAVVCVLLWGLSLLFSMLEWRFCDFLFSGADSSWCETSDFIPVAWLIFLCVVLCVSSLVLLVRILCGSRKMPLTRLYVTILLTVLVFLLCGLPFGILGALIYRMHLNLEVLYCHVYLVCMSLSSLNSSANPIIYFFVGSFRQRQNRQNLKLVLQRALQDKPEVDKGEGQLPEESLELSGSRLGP
Outline: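 EC50 came from a four-parameter logistic fit to averaged triplicate responses, each response being maximum post-stimulation signal less baseline. Intracellular calcium was monitored with Calcium 5 dye in HBSS with 20 mM HEPES, pH 7.4, after 1 h dye loading at 37 °C, using stably transfected HEK293 cells and parental controls.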

MRGPRX4 S83L (L83) = MRGPRX4 S83L (L83) (Homo sapiens, UniProt Q96LA9); experiment: PRESTO-Tango β-arrestin recruitment assay, HTLA cells stably expressing S83L MRGPRX4; assay type: cell-based; details: single replicate
MRGPRX4 S83L (L83), sequence (Q96LA9 whole entry, stated change not applied, the tested form may be a part): as the sequence (Q96LA9 whole entry L83S) above, with S83L counted along it
Experimental: HTLA cells, a cell line derived from HEK293 and engineered to stably express a tTA-dependent luciferase reporter and a β-arrestin2-TEV fusion gene, were generously provided by Richard Axel's laboratory. HTLA cells were cultured in growth medium containing 2 μg/ml puromycin and 100 μg/ml hygromycin B in 5% CO2 at 37 °C. Stably MRGPRX4-expressing HTLA cells were generated by transfecting pcDNA3.1(+)-Zeo containing MRGPRX4-Tango construct (either with WT or S83L mutant sequence) into HTLA cells with Lipofectamine 3000 and selecting the successful transfected clones with Zeocin.
HTLA cells stably expressing either WT or S83L MRGPRX4 were seeded in PDL-coated 96-well white clear bottom cell culture plates with DMEM containing 10% FBS, at a density of 35,000 cells per well and were allowed to attach to the bottom of the wells overnight. The next day, growth medium was replaced with 100 μl of serum-free medium containing the tested drugs at various concentrations, and the cells were then incubated at 37°C for 24 h. On the following day, media with drug solutions was removed and 50 μl per well of Bright-Glo™ Reagent from Bright-Glo™ Luciferase Assay System (Promega) was loaded. The plate was incubated at room temperature in the dark for 5 min, and the relative luminescence units were measured using the Flexstation-3 instrument with SoftMax®Pro 7.1 software (Molecular Devices). Dose response curves and EC50s were analyzed as described above.
MRGPRX4 by β-arrestin (Tango) recruitment assay. Data are from three independent experiments,
performed in triplicate, and depicted as mean ± SEM.

WT NP1-3 DRG neurons = experiment: GCaMP6s calcium imaging of NP1-3 DRG neurons from Pirt-Cre; Rosa-lsl-GCaMP6s mice; assay type: cell-based, mouse; details: 10 µM
Experimental: Murine DRGs (from both male and female) were harvested from all spinal segments and digested in dispase (5 mg/ml) / type I collagenase (1 mg/ml) enzyme mix at 37 °C for an hour. Enzyme mix was replaced with complete DH10 media (90% DMEM/F12, 10% FBS, penicillin (100 units/ml), and streptomycin (100 μg/ml)) and gently triturated with 1 ml pipette tip until the media turned cloudy without visible tissue chunks. Dissociated tissues were filtered through a 70 μm filter and spun down 1250 rpm for 5 min at RT. Supernatant was removed and the cell pellet was resuspended in complete DH10 media. Cell suspension was then added on top of poly-D-lysine- and laminin-coated coverslips and sat for 1–2 h at 37°C. Complete DH10 media supplemented with NGF (50 ng/ml) was then added into the vessel. Neurons were allowed to recover overnight at 37°C for the next-day calcium imaging experiment.
Calcium imaging data was collected with a Nikon Eclipse TE 200 microscope. Time series GCaMP6 fluorescence intensity was acquired through the FITC/GFP channel. […] Neurons with GCaMP6 signal rose above 50% of the baseline intensity after compound application were counted as positive responders and the percentage of responding neurons was calculated. […]
(top) and individual (bottom) calcium activity, measured by fluorescence intensity normaliz ed to […]
activity from the recorded neurons is shown in heatmap. […]

MRGPRX4 W158A = target: T2, MRGPRX4 W158A (Homo sapiens, UniProt Q96LA9, L83S/W158A); experiment: Calcium mobilization assay (FLIPR), MRGPRX4 W158A mutant; assay type: cell-based; details: for calcium mobilization response (Fig. 3E and 3F dose-response): W158A
T2 construct: expressed in transfected cells; host or cells: HEK293T, transient
T2 sequence (Q96LA9 whole entry L83S/W158A): as the sequence (Q96LA9 whole entry L83S) above, with W158A counted along it
Description: Fig. 3. […] (A) Cryo-EM density map of MRGPRX4-Gq in complex with fospropofol. (B) The density map of fospropofol and R82 of MRGPRX4. (C and D) Key molecular interactions between fospropofol and the hydrophilic (C) and hydrophobic (D) part of the agonist binding pocket of MRGPRX4. Amino acid residues interacting with fospropofol are shown as sticks. Hydrogen bond is shown as cyan dashed lines. […] Data are from at least three independent experiments, each performed in triplicate, and reported as the mean ± SEM. (E) and (F) were collected from the same sets of experiments.
To generate murine Mrgprs expressing cells, HEK293T cells (ATCC) were seeded on poly-D-lysine coated 96 well plate at 25,000 cells per well one day prior to transfection. HEK293T cells were transiently co-transfected with the mammalian expression plasmids carrying cDNA encoding the murine Mrgpr genes and plasmid inserted with cDNA encoding murine α-subunit of the heterotrimeric G15 protein (Gα15) in triplicates using Lipofectamine LTX reagents (Thermo Scientific). To generate WT, S83L, and alanine mutant MRGPRX4-expressing cells, HEK293T cells were seeded on poly-D-lysine coated 384 well plate at 12,000 cells per well one day prior to transfection. Mammalian expression plasmids pLX304 (vector from Addgene) carrying different MRGPRX4 coding sequences were transiently transfected into HEK293T cells in triplicates with Lipofectamine LTX reagents (Thermo Scientific). Intracellular calcium mobilization assays were performed after one day of transfection. Murine Mrgprs tested include Mrgpra1, Mrgpra2a, Mrgpra2b, Mrgpra3, Mrgpra4, Mrgpra6, Mrgpra9, Mrgpra10, Mrgpra11, Mrgpra12, Mrgpra14, Mrgprb5, Mrgprb6, Mrgprb10, Mrgprb11, and Mrgprc11. WT and mutant MRGPRX4 constructs tested include WT, S83L, R82A, R86A, R95A, W158A, Y250A, and Y254A.
To generate MRGPRX4 mutant constructs, site-directed mutagenesis was performed using Q5® Site-Directed Mutagenesis Kit (New England Biolabs). The primers were designed by the NEBaseChanger tool, with forward primers spanning designated mutated sequence corresponding to the desired amino acid substitutions. The plasmids with WT MRGPRX4 sequence served as the templates for polymerase chain reaction (PCR) amplification with Q5 high-fidelity polymerase and respective primer pairs according to the manufacturer’s conditions. Then, the linear PCR products underwent phosphorylation, ligation, and simultaneous degradation of template DNA by incubating them with a KLD enzyme mix consisting of T4 polynucleotide kinase, T4 DNA ligase, and DpnI at room temperature for 5 min. Subsequently, the mutated circular plasmids were transformed into NEB 5-alpha competent E. coli by heat-shock method, and the successfully transformed bacteria were selected on LB plates with selection antibiotics. The next day, the transformant colonies were picked, expanded in LB broth containing selection antibiotics overnight. Plasmids were isolated using QIAprep Spin Miniprep Kit (Qiagen) and subjected to sequencing to confirm the mutation.

[1] = cited from earlier work
[2] = cited from earlier work; remark: listed apart in the source
[3] = ref ClinicalTrials.gov Identifier: NCT00327392

O=C1NC(c2ccccc2)(c2ccccc2)C(=O)N1COP(=O)(O)O [Fosphenytoin]
pEC50 (MRGPRX4 (S83); MRGPRX4 stably expressed HEK293 cells, calcium mobilization, read-out: EC50): 7.11 | calcium mobilization response (Fig. 1D dose-response raw data) (MRGPRX4 (S83); concentration 3.90625e-9 M): 21.206 and 25.291 and 2.769 and 3.958 and -8.2623 and 8.875 and 8.837 and 9.145 and 8.934 | calcium mobilization response (Fig. 1D dose-response raw data) (MRGPRX4 (S83); concentration 7.8125e-9 M): -14.542 and 13.805 and 7.794 and 12.8387 and 12.8087 and 12.5987 and 3.298 and 9.875 and 9.477 | calcium mobilization response (Fig. 1D dose-response raw data) (MRGPRX4 (S83); concentration 1.5625e-8 M): 19.866 and 22.527 and 5.041 and 1.449 and 6.253 and 14.7987 and -3.2365 and 13.5705 and -5.8765 | calcium mobilization response (Fig. 1D dose-response raw data) (MRGPRX4 (S83); concentration 3.125e-8 M): 57.235 and 30.337 and 81.497 and 17.5777 and 19.6667 and 31.6637 and -30.287 and 41.9265 and -1.7705 | calcium mobilization response (Fig. 1D dose-response raw data) (MRGPRX4 (S83); concentration 6.25e-8 M): 190.544 and 229.236 and 134.524 and 58.9937 and 67.8137 and 76.3827 and 88.4165 and 111.221 and 55.6105 | calcium mobilization response (Fig. 1D dose-response raw data) (MRGPRX4 (S83); concentration 1.25e-7 M): 316.003 and 301.004 and 304.213 and 117.536 and 116.768 and 79.1877 and 194.175 and 173.792 and 144.932 | calcium mobilization response (Fig. 1D dose-response raw data) (MRGPRX4 (S83); concentration 2.5e-7 M): 345.7 and 324.779 and 337.838 and 121.175 and 136.568 and 118.794 and 200.38 and 226.084 and 171.163 | calcium mobilization response (Fig. 1D dose-response raw data) (MRGPRX4 (S83); concentration 5e-7 M): 387.516 and 373.964 and 353.304 and 134.73 and 112.159 and 119.649 and 195.132 and 238.81 and 185.954 | calcium mobilization response (Fig. 1D dose-response raw data) (MRGPRX4 (S83); concentration 1e-6 M): 410.183 and 413.027 and 415.898 and 143.736 and 123.579 and 132.916 and 226.932 and 271.213 and 250.762 | calcium mobilization response (Fig. 1D dose-response raw data) (MRGPRX4 (S83); concentration 2e-6 M): 394.314 and 370.112 and 382.271 and 127.759 and 125.948 and 138.324 and 218.164 and 295.676 and 255.523 | Hill coefficient (MRGPRX4 (S83)): 1.917 | fig. S7 response (raw signal), concentration-response (MRGPRX4 S83L (L83); 3.91e-6 M): 13508.2 | fig. S7 response (raw signal), concentration-response (MRGPRX4 S83L (L83); 7.81e-6 M): 22144.4 | Activation of NP1–3 neuron populations (WT NP1-3 DRG neurons): few neurons were activated | Calcium mobilization response at alanine mutant W158A vs WT (MRGPRX4 W158A): disrupted calcium mobilization | calcium mobilization response (Fig. 3E and 3F dose-response) (MRGPRX4 W158A; 0.000333 M): -15.9549 | calcium mobilization response (Fig. 3E and 3F dose-response) (MRGPRX4 W158A; 0.001 M): -17.9356 | calcium mobilization response (Fig. 3E and 3F dose-response) (MRGPRX4 W158A; […]): -11.6633 | Patients who reported itch ([1]; IV, clinical trials, ref New Drug Application: 020450): 48.9% | Solubility relative to parent drug ([2]; vs phenytoin): 4500 fold

CC(C)c1cccc(C(C)C)c1OCOP(=O)(O)O [Fospropofol]
pEC50 (MRGPRX4 (S83)): 8.42 | Fig. 1D dose-response, calcium response at Concentration (M) (MRGPRX4 (S83); 390.6 pM): 1.887 and 7.675 and 17.3467 and 28.1293 and 25.4823 and 35.7983 and -3.6673 and 11.7957 and 11.3767 | Fig. 1D dose-response, calcium response at Concentration (M) (MRGPRX4 (S83); 781.2 pM): 26.5827 and 9.949 and 22.6817 and 47.5243 and 43.9493 and 46.7693 and 30.8217 and 49.6317 and 45.8127 | Fig. 1D dose-response, calcium response at Concentration (M) (MRGPRX4 (S83); 1.5625e-9 M): 74.3117 and 80.9857 and 81.1437 and 128.989 and 99.4103 and 141.332 and 62.3957 and 66.3277 and 70.4507 | Fig. 1D dose-response, calcium response at Concentration (M) (MRGPRX4 (S83); 3.125e-9 M): 97.9827 and 97.6007 and 113.013 and 161.554 and 132.577 and 128.455 and 112.923 and 102.472 and 92.5087 | Fig. 1D dose-response, calcium response at Concentration (M) (MRGPRX4 (S83); 6.25e-9 M): 129.465 and 134.099 and 141.914 and 173.201 and 168.912 and 206.791 and 144.704 and 134.885 and 117.377 | Fig. 1D dose-response, calcium response at Concentration (M) (MRGPRX4 (S83); 1.25e-8 M): 164.422 and 179.515 and 157.084 and 234.098 and 206.128 and 222.155 and 172.571 and 101.371 and 130.276 | Fig. 1D dose-response, calcium response at Concentration (M) (MRGPRX4 (S83); 2.5e-8 M): 193.287 and 213.245 and 222.211 and 313.329 and 290.374 and 297.501 and 184.525 and 188.459 and 188.843 | Fig. 1D dose-response, calcium response at Concentration (M) (MRGPRX4 (S83); 5e-8 M): 209.793 and 233.98 and 204.052 and 317.065 and 340.21 and 331.701 and 193.877 and 181.409 and 188.341 | Fig. 1D dose-response, calcium response at Concentration (M) (MRGPRX4 (S83); 1e-7 M): 231.301 and 222.41 and 222.053 and 368.09 and 352.14 and 353.772 and 173.973 and 182.603 and 208.392 | Fig. 1D dose-response, calcium response at Concentration (M) (MRGPRX4 (S83); 2e-7 M): 241.094 and 221.904 and 183.593 and 346.939 and 358.59 and 369.748 and 151.356 and 187.22 and 148.627 | MRGPRX4 agonist activity / calcium signaling (MRGPRX4 (S83); MRGPRX4-expressing HEK293 cells): potent agonist of MRGPRX4 | Hill coefficient (MRGPRX4 (S83)): 0.800 | fig. S7 response (raw signal), concentration-response (MRGPRX4 S83L (L83); 1.95e-8 M): 10514 | Activation of NP1–3 neuron populations (WT NP1-3 DRG neurons): few neurons were activated | Calcium mobilization response at alanine mutant W158A vs WT (MRGPRX4 W158A): disrupted calcium mobilization | Patients who reported paresthesia [1, 3]: 53.6% | Patients who reported pruritus [1, 3]: 26.0% | Solubility relative to parent drug ([2]; vs propofol): 3000 fold
